Results on one molecule are retold here after patent publication US20020102678A1, “Staphylococcal gene, vgaC, conferring resistance to streptogramin A and related compounds” (priority 2000, published 2002).

The structures appear in SMILES notation.

The test system of test [1] is BM3327, S. aureus clinical isolate. The test is described as follows: MIC by serial twofold dilutions in MHA, strain BM3327. The class given is cell-based. On the procedure: (§1) Staphylococci were grown in Brain Heart Infusion (Difco Laboratories, Detroit, Mich.), and E. coli cells were grown in Luria broth (10 g.1^−1 of tryptone, 5 g.^−1 of yeast extract, and 10 g.1^−1 of NaCl) Solid media contained 15 g.1^−1 of agar. Bacteria were incubated at 37° C. and for liquid cultures with agitation. Susceptibility to antibiotics was tested on Mueller-Hinton agar (MHA) (Diagnostics Pasteur, Marne-la-Coquette, France).
(§2) Susceptibility to antibiotics was determined by a disk diffusion assay (12) with commercially available antibiotic disks (Diagnostics Pasteur) and disks prepared in our laboratory as described previously (18). MICs of pristinamycin IIA and pristinamycin (Rhône-Poulenc Rorer) were determined with serial twofold dilutions of antibiotics in MHA, as described previously (2, 17).

Test [2] has as its system BM3318, S. aureus clinical isolate. The test is described as follows: MIC by serial twofold dilutions in MHA, strain BM3318. Type of test: cell-based. On the procedure:
as §1, §2

Test [3] has as its system four S. aureus isolates (BM3249, BM3250, BM3252 and BM3327). The test is described as follows: MICs of the four isolates used in filter mating. Particulars: range over BM3249, BM3250, BM3252 and BM3327. Type of test: cell-based. On the procedure:
as §1, §2
Each of the four S. aureus isolates (BM3249, BM3250, BM3252 and BM3327: Table 1) resistant to PIIA (MICs : 64-128 mg. 1^−1) and related antibiotics was crossed on a membrane filter with the S. aureus recipient strain, ISP1127 (26). No transcipients were obtained by selection on pristinamycin IIA (frequency<10^−10 transcipients/donor).

The subject of test [4] is BM3249, S. aureus clinical isolate. As to the kind of experiment: MIC by serial twofold dilutions in MHA, strain BM3249. The class given is cell-based. On the procedure: as §1, §2
The test system of test [5] is BM21926, S. aureus transformant: RN4220 (pIP 1810). The test is described as follows: MIC by serial twofold dilutions in MHA, transformant carrying vgaC. Type of test: cell-based. The following applies: S. aureus RN4220 (pIP1810, carries vgaC) = BM21926. On the procedure:
as §1, §2
(§3) A DNA fragment of 1827-bp including vgaC was amplified with primers C and D (FIG. 1) from the cellular DNA of BM3327. This amplicon was cleaved with BamHl and KpnI and inserted between the BamHl and KpnI sites of the shuttle vector, pRB374 (11), downstream from the vegII promoter carried by this vector. The resulting plasmid, pIP1810, was introduced by electroporation into the S. aureus recipient RN4220. It conferred resistance to pristinamycin IIA (MICs: 32 mg.1^−1 for RN4220 [pIP18101, and 2 mg.1^−1 for RN4220 [pRB374]).

The test system of test [6] is BM3250, S. aureus clinical isolate. The test is described as follows: MIC by serial twofold dilutions in MHA, strain BM3250. Type of test: cell-based. On the procedure:
as §1, §2

Another test has as its system resistant staphylococci. The following applies: staphylococci resistant to A compounds; cited from earlier work.
The test system of another test is RN4220 [pRB374]. The test is described as follows: MIC by serial twofold dilutions in MHA, transformant with the empty vector. Type of test: cell-based. The following applies: S. aureus RN4220 [pRB374], vector without vgaC. On the procedure:
as §1, §2, §3

The test system of test [7] is BM3252, S. aureus clinical isolate. The test is described as follows: MIC by serial twofold dilutions in MHA, strain BM3252. The class given is cell-based. On the procedure: as §1, §2

Consider `CC1=C\[C@@H](O)CC(=O)Cc2nc(co2)C(=O)N2CCC=C2C(=O)O[C@H](C(C)C)[C@H](C)/C=C/C(=O)NC\C=C\1` [pristinamycin IIA], for which the MIC in test [1] was 128 mg.1^−1; in test [2] it was 128 mg.1^−1; in test [4] it was 64 mg.1^−1; in test [5] it was 32 mg.1^−1; in test [5] (listed as SgA), “SgA (32 mg.1^−1) Km Nm Tm”; in [6] it was 64 mg.1^−1. In addition, the results for the MIC (with RN4220 [pRB374]; in test [7]) were 2 mg.1^−1 and 64 mg.1^−1, respectively. Further, the MICs in [3] is on record as 64-128 mg. 1^−1; with resistant staphylococci, 8 mg.1^1.
